Measured values from PubChem BioAssay (NCI).
“And” between values parts separate entries of the source, which are not always exact repeats. Identical values can stand only once.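 Values below derive from 48-hour exposures of cells grown in 96-well plates, with endpoints linearly interpolated between the two concentrations bracketing the appropriate inhibition level. Here, GI50 denotes the concentration required for 50% inhibition of growth. TGI denotes the concentration required for complete inhibition of growth.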

What was measured:
Experiment in all cases: inhibition of tumour cell growth, NCI panel, 48 h
[1] = test system: A498 renal
[2] = test system: M19-MEL melanoma
[3] = test system: MOLT-4 leukemia
[4] = test system: NCI-H460 lung
[5] = test system: SK-MEL-28 melanoma
[6] = test system: UACC-62 melanoma
[7] = test system: HCC-2998 colon
[8] = test system: MDA-MB-231 breast
[9] = test system: T-47D breast
[10] = test system: DLD-1 colon

| Compound | TGI [1] | TGI [2] | TGI [3] | TGI [4] | TGI [5] | TGI [6] | GI50 [1] | GI50 [7] | TGI [7] | GI50 [8] | TGI [8] | GI50 [3] | GI50 [4] | GI50 [5] | GI50 [9] | TGI [9] | GI50 [6] | TGI [10] | GI50 [2] |
| --- | --- | --- | --- | --- | --- | --- | --- | --- | --- | --- | --- | --- | --- | --- | --- | --- | --- | --- | --- |
| CCCNC(=O)Nc1c([N+](=O)[O-])cc(C(F)(F)F)cc1[N+](=O)[O-] | > 100 µM | 69.1 µM | > 100 µM | > 100 µM | > 100 µM | > 100 µM | – | – | – | – | – | – | – | – | – | – | – | – | – |
| COc1cc(CNCCCCCCN2C(=O)c3cccc4cccc(c34)C2=O)ccc1O | 21 µM | – | 16.2 µM | 15.9 µM | 4.31 µM | 26.2 µM | 0.735 µM | 11.2 µM | 24.6 µM | 5.84 µM | 19.6 µM | 3.45 µM | 3.71 µM | 2.06 µM | 2.93 µM | 14.3 µM | 13.1 µM | – | – |
| NS(=O)(=O)c1ccc(Nc2cc(-c3ccc(O)c(F)c3)[nH]n2)cc1 | > 25 µM | – | > 25 µM | > 25 µM | > 25 µM | > 25 µM | > 25 µM | > 25 µM | > 25 µM | > 25 µM | > 25 µM | > 25 µM | > 25 µM | > 25 µM | > 16.6 µM | > 25 µM | > 25 µM | – | – |
| COC(=O)C(=O)Cc1nc2ccccc2s1 | > 100 µM | > 100 µM | > 100 µM | – | > 100 µM | > 100 µM | – | – | > 100 µM | – | – | – | – | – | – | – | – | > 100 µM | – |
| O=C(Nc1ccc(Oc2ccc(F)cc2)cc1)[C@@H]1C[C@@H](Cc2ccc(F)cc2)CN1C(=O)Cn1ccnn1 | 27.9 µM | – | 31.6 µM | 21.4 µM | 20.6 µM | 20.9 µM | 8.49 µM | 7.17 µM | 21.8 µM | 8.91 µM | 26.6 µM | 4.2 µM | 5.37 µM | 6.72 µM | 4.32 µM | 36.5 µM | 6.14 µM | – | – |
| O=C(O/N=C1\CCCC\C1=C/c1ccccc1)c1ccc([N+](=O)[O-])cc1 | – | > 100 µM | > 100 µM | > 100 µM | > 100 µM | > 100 µM | – | – | > 100 µM | – | – | – | – | – | – | – | – | > 100 µM | – |
| COc1cc(-c2cc(/C=C/C(=O)c3ccc(F)c(F)c3)[nH]n2)cc(OC)c1OC | 7.13 µM | – | 9.09 µM | 8.24 µM | 28.2 µM | 7.44 µM | 2.11 µM | 3.69 µM | 34.1 µM | 1.64 µM | 4.58 µM | 2.72 µM | 2.96 µM | 5.31 µM | 2.45 µM | 27 µM | 2.38 µM | – | – |
| CN(C)c1ccc(/C=C\c2ccnc3ccccc23)cc1 | > 26.7 µM | – | > 100 µM | > 91.8 µM | > 80.5 µM | > 100 µM | 7.57 µM | 6.04 µM | > 100 µM | 11.3 µM | > 73.9 µM | 14.5 µM | 5.2 µM | 21.7 µM | 2.48 µM | > 100 µM | 6.18 µM | – | – |
| COC1=C(N)C(=O)c2nc(-c3nc(C(=O)O)c(C)c(-c4ccc(OC)c(OC)c4O)c3N)ccc2C1=O | – | 0.0224 µM and 0.0234 µM | 0.0805 µM and 0.0445 µM and < 0.0167 µM | – | – | – | 0.00128 µM | 0.00121 µM and 0.00468 µM | – | – | – | – | – | – | – | – | 0.00103 µM and 0.000879 µM and < 0.01 µM | 0.0524 µM | – |
| Cc1cc(=O)oc2ccc(OC/C=C3\CCC(=O)O3)cc12 | 50.6 µM | – | > 100 µM | 43 µM | 23.5 µM | 22.8 µM | 12.3 µM | 14.7 µM | 28.1 µM | 13.2 µM | 27 µM | 3.05 µM | 17.3 µM | 11.3 µM | 2.6 µM | 19.6 µM | 10.3 µM | – | – |
| c1cc(N[C@@H]2CCNC2)nc(-c2cnc3ccc(-c4cn[nH]c4)cn23)c1 | 29 µM | – | 51.6 µM | 80.3 µM | 16.9 µM | 20.3 µM | 7.01 µM | 9.95 µM | 35.5 µM | 3.56 µM | 36.1 µM | 4.39 µM | 16.7 µM | 4.35 µM | 2.04 µM | 9.3 µM | 5.02 µM | – | – |
| CC(=O)C1CCN(c2ccccc2)C1 (configuration not stated) | > 100 µM | > 100 µM | > 100 µM | > 100 µM | > 100 µM | > 100 µM | – | – | – | – | – | – | – | – | – | – | – | > 100 µM | – |
| O=C1/C(=C/c2ccc(Cl)c(Cl)c2)CN(C(=O)C(Cl)Cl)C/C1=C\c1ccc(Cl)c(Cl)c1 | 0.664 µM | – | > 100 µM | 0.935 µM | 0.634 µM | 0.459 µM | 0.216 µM | 0.181 µM | 0.355 µM | 0.237 µM | 1.16 µM | 0.0985 µM | 0.261 µM | 0.252 µM | 0.256 µM | 1.77 µM | 0.197 µM | – | – |
| CC(C)=CCc1cc2c(cc1O)C1=C(C(=O)C3=C(C1=O)S(=O)(=O)CCN3)C(C=C(C)C)O2 (configuration not stated) | 5.96 µM | – | 3.99 µM | 2.3 µM | 1.92 µM | 1.21 µM | 3.54 µM | 1.48 µM | 3.84 µM | 0.374 µM | 1.61 µM | 0.718 µM | 0.454 µM | 0.541 µM | 0.714 µM | 7.15 µM | 0.419 µM | – | – |
| COc1cc(/C=C2\C(=O)N(Cc3ccc(Cl)cc3)c3ccccc32)cc(OC)c1OC | 7.97 µM | – | 5.97 µM | 8.38 µM | 3.07 µM | 10 µM | 1.54 µM | 1.95 µM | 4.28 µM | 2.48 µM | 18.4 µM | 2.2 µM | 2.82 µM | 1.53 µM | 2.16 µM | 7.72 µM | 2.21 µM | – | – |
| NC1NC=NC2C1N=CN2C1OC(CO)C2[O][Sn][O]C21 (configuration not stated) | > 100 µM | > 100 µM | > 100 µM | > 100 µM | > 100 µM | > 100 µM | > 100 µM | > 100 µM | > 100 µM | – | – | > 100 µM | > 100 µM | > 100 µM | – | – | > 100 µM | – | > 100 µM |
